# From patent publication US20190008797A1, “ESTROGEN RECEPTOR ALPHA COLIGANDS, AND METHODS OF USE THEREOF” (priority 2016, published 2019)
# Tests used:
# [1] = test system: U2OS-ERα cells; assay: NKG2E mRNA real-time PCR in U2OS-ERα cells; assay type: cell-based, human
# Experimental: (§1) (FIG. 1a) Chemical structure of 2′, 3′, 4′-THC. (FIG. 1b) U2OS cells cotransfected with ERE tk-luciferase and ERα (left panel) or ERβ (right panel). After transfection the cells were treated for 24 hours with 10 nM estradiol and 5 μM 2′, 3′, 4′-THC alone or in combination. Cells were lysed and luciferase activity was measured. RLU is relative light units. Error bars are the Mean±SEM. **P≤0.01. […] The total cellular RNA was extracted and real-time PCR for KRT19 mRNA was performed as described in Materials and Methods. […] Error bars are ±SEM. *P≤0.05, **** P≤0.0001.
# (§2) (FIGS. 6a, 6b) Gene expression of (FIG. 6a) KRT73 and (FIG. 6b) NKG2E in U2OS-ERα cells treated with 10 nM estradiol, 5 μM 2′, 3′, 4′-THC, 1μM ICI alone or in combination for 24 hours. […] Error bars are ±SEM. […] After transfection, luciferase activities were measured as described in the Methods. RLU is relative light units and the data shown are mean ±SEM. (FIG. 6c). […] After transfection, luciferase activities were measured as described in the Methods. RLU is relative light units and the data shown are mean ±SEM (FIG. 6d).
# [2] = target: T1, ERα (Homo sapiens, UniProt P03372); assay: ERE-tk luciferase transfection assay, U2OS cells cotransfected with ERα; assay type: cell-based; parameters: expressed in transfected cells; host or cells: U2OS
# Experimental: as §1
# [3] = target: T1, ERα; assay: NKG2E-TK-Luc transfection assay, U2OS cells cotransfected with ERα; assay type: cell-based; parameters: expressed in transfected cells; host or cells: U2OS
# Experimental: FIG. 7a-7e. […] (C) U2OS cells cotransfected with GRE-TK-Luc and human (h) GR and treated with 10 nM of dexamethasone (Dex) and 5 μM of 2′, 3′, 4′-THC alone or in combination for 24 hours. (D) U2OS cells cotransfected with human tyrosine aminotransferase (TATS)-luciferase reporter gene and hAR and treated with 10 nM of dihydrotestosterone (DHT) and 5 μM of 2′, 3′, 4′-THC alone or in combination for 24 hours. (E) U2OS cells cotransfected with TAT3-luciferase reporter gene and hPR-B and treated with 10 nM of progesterone (Prog) and 5 μM of 2′, 3′, 4′-THC alone or in combination for 24 hours. After transfection, luciferase activities were measured as described in the Methods. RLU is relative light units and the data shown are mean±SEM.
# as §2
# [4] = test system: U2OS-ERα cells; assay: Microarray gene regulation in U2OS-ERα cells; assay type: cell-based, human
# Experimental: Total cellular RNA was isolated utilizing the Aurum™ RNA isolation kit (Bio-Rad, Hercules, Calif.) per the manufacturer's directions. RNA isolates were first quantified by nanodrop®, and then qualitatively evaluated by the Bio-Rad Experion™ system per the manufacturer's instructions. Biotin-labeled cRNA samples were prepared using 750 ng of total RNA. Biotin-labeled samples were evaluated by both 260/280 absorbance spectrophotometry and capillary electrophoresis. Labeled cRNA samples were hybridized overnight against Human genome HG U133A-2.0 GeneChip® arrays, (Affymetrix, Santa Clara, Calif.). All treatments were done in triplicate with the same batch of microarrays. The data was analyzed as previously described (Saunier, E. F., et al. Estrogenic plant extracts reverse weight gain and fat accumulation without causing mammary gland or uterine proliferation. PloS one 6, e28333 (2011)).
# FIGS. 2a-2f2′, 3′, 4′-THC behaves as a unique coagonist on gene expression in U2OS-ERα cells. […] Expression was assessed by up regulation or down regulation of 3-fold or more and a P-value≤0.05. […] Error bars are ±SEM.
# [5] = target: T2, human glucocorticoid receptor (Homo sapiens, UniProt P04150); assay: GRE-TK-Luc reporter, U2OS cells cotransfected with hGR; assay type: cell-based; conditions: 5 μM + 10 nM dexamethasone, 24 hours
# T2 construct: expressed in transfected cells; host or cells: U2OS
# T2 sequence (P04150 1-777): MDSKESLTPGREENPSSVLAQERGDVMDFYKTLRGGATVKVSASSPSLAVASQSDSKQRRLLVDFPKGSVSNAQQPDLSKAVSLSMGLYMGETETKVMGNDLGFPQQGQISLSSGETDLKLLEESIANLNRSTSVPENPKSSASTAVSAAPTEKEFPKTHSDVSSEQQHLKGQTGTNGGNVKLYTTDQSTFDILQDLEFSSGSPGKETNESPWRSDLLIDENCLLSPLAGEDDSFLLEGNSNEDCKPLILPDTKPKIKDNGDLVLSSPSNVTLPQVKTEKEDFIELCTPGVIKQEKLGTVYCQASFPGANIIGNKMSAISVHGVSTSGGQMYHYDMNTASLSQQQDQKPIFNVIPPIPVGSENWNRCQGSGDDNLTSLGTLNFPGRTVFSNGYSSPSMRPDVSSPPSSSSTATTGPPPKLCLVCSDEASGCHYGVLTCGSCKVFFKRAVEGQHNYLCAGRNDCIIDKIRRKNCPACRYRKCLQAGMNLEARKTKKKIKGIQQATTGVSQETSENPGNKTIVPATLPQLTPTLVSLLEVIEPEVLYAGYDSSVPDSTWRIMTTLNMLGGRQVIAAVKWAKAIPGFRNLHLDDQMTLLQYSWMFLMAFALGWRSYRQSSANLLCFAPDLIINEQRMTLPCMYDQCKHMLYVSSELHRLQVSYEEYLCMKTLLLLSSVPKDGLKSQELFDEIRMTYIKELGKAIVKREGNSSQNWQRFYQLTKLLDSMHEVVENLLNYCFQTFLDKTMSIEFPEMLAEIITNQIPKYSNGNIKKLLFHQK
# [6] = target: T1, ERα; assay: ChIP of ERα recruitment in MCF-7 cells; assay type: cell-based; parameters: expressed in transfected cells; conditions: 5 μM + 10 nM E2, 1 hour
# T1 sequence (P03372 whole entry): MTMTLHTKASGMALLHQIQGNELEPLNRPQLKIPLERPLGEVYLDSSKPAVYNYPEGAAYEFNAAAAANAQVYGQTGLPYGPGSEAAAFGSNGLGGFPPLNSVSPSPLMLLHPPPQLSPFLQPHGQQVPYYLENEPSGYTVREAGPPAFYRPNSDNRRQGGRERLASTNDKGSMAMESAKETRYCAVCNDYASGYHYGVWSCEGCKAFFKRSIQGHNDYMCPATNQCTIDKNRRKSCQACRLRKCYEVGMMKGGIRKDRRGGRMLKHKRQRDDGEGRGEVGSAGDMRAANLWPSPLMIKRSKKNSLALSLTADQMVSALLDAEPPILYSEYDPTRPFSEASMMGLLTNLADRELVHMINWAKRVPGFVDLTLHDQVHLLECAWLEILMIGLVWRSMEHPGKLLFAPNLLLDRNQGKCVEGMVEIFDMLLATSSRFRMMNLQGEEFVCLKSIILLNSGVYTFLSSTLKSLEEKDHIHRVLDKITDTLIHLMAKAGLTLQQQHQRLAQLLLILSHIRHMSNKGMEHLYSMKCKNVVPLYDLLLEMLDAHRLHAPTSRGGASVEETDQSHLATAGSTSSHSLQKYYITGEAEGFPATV
smiles,measurement,setting,value
"O=C(/C=C/c1ccccc1)c1ccc(O)c(O)c1O [2′, 3′, 4′-THC, 2′, 3′, 4′-trihydroxychalcone]","NKG2E gene expression, compound alone","[1]; 10 nM E2, 5 μM 2′,3′,4′-THC, 1 μM tamoxifen or raloxifene, 24 hours",no effect
same,synergy in combination with tamoxifen or raloxifene,[1]; 5 μM + 1 μM tamoxifen or raloxifene,No synergy
same,effect on E2-induced NKG2E gene expression,"[1]; in combination with 10 nM E2, 24 hours",synergistic activation
same,luciferase activity with E2,"[2]; ERα, 5 μM chalcone + 10 nM E2, 24 hours",synergistic increase
same,"activity on ERE luciferase, compound alone","[2]; U2OS cells transfected with ERα, 5 μM, 24 hours",inactive
same,response of NKG2E-TK-Luc with E2,"[3]; 1 μM 2′,3′,4′-THC",synergistic response
same,response of NKG2E-TK-Luc with E2,"[3]; 5 μM 2′,3′,4′-THC",maximal response
same,"synergistic activation of NKG2E-TK-Luc in combination with E2, tamoxifen or raloxifene","[3]; 5 μM, 10 nM E2, 1 μM tamoxifen, 1 μM raloxifene, 24 hours",synergistic activation only with E2
same,"activation of NKG2E-TK-Luc, compound alone",[3]; 24 hours,No activation
same,"number of genes regulated, compound alone","[4]; 10 nM E2 or 5 μM 2′,3′,4′-THC, 3-fold or more, P≤0.05",31 genes
same,genes regulated by the combination that were also regulated by E2,[4]; 5 μM + 10 nM E2,534 genes
same,"number of genes regulated by the 2′,3′,4′-THC/E2 combination",[4]; 5 μM + 10 nM E2,"1,358 genes"
same,"unique genes only regulated by the 2′,3′,4′-THC/E2 combination",[4]; 5 μM + 10 nM E2,824 genes
same,synergy with receptor agonist,[5],no synergy
same,effect on E2 induced ERα binding to the c-MYC enhancer,[6],inhibited
same,effect on recruitment of ERα to the KRT19 ERE,[6],did not have a significant effect
